According to patent US11478442B2, “Pharmaceutical compositions comprising DGLA and use of same” (DS Biopharma Limited, priority 2014, dated 2022):
Read-outs that look alike come from different tables or passages of the source.

Experiments:
[1] = test system: spontaneous hypertensive rats; experiment: Anti-hypertension efficacy of DGLA and aspirin in spontaneous hypertensive rats with phenylephrine challenge; format: in vivo, rat; details: for effect on mean systemic arterial pressure (in words): aspirin-fed rats
Procedure: An in vivo investigation of anti-hypertension efficacy following co-administration of DGLA and aspirin in spontaneous hypertensive rats was conducted. This experiment investigated the efficacy of DGLA when co-administered chronically with aspirin to reduce the hypertensive response induced acutely by phenylephrine in spontaneous hypertensive rats. Spontaneously hypertensive adult male rats (250-300 g), bred by Charles River Laboratories, were used for this assay. The animals were identified upon arrival as per CCPA guidelines. The animals were pair-housed by group (low dose+ Aspirin, high dose+ Aspirin or Aspirin alone) for the duration of the oral gavage prior to surgery. All animal care and vivarium maintenance was recorded, with documents kept at the test facility.
The concentrations of DGLA to be tested (50 and 500 mg/kg) as well as the concentration of aspirin (10 mg/kg) were selected by the Sponsor based on information available at the time of design of this study. They were selected to cover a range of concentrations useful for the identification of the mechanism of action of the test article.
All solution preparations were documented on a Solution Contents Form, defining labelling information and all relevant information on reagents: batch number, storage conditions, contents, and preparation/expiry dates.
The test article was formulated using olive oil as the vehicle. This stock solution was then administered by oral gavage once per day for seven consecutive days. A low and a high dose (50 mg/kg and 500 mg/kg) were tested.
A 5 mg/ml stock solution of Aspirin was prepared by dissolving the appropriate amount of aspirin in 100% DMSO which was then diluted in water. The concentration of DMSO was less than 1%. The appropriate volume was administered by oral gavage to each animal once per day for seven consecutive days. The stock solution was stored at room temperature and was considered stable for the duration of the gavage.
The appropriate volume was administered to each animal by an intravenous injection at the end of the experiment on the surgery day. The stock solution was stored at 4° C. and was considered stable for the duration of the experiment.
Male spontaneous hypertensive rats weighing approximately 300 g arrived at the facility at least two days before beginning the oral gavage. Animals were assigned to one of three groups (low dose+ aspirin, high dose+ aspirin, and aspirin), and were pair-housed during the acclimation period. Each group (n=4) received the appropriate compound by oral gavage using a 16G feeding needle. The stock solution was administered once per day for seven consecutive days. On the seventh day of administration, the animals underwent surgery and hypertensive monitoring.
Rats were anesthetized with a 2.5-3.0% isoflurane-O2 mixture in an induction box. When the animals were removed from the induction box, they were connected onto a nose cone to maintain anesthesia during the tracheotomy. The animals were tracheotomised with an endotracheal tube (7 cm length from connector to the tip made with a PE205 tube from BD and a 16G needle) to facilitate spontaneous breathing, stabilize hemodynamics, and to keep the rat under anesthesia with an isoflurane-O2 mixture. Two catheters were inserted: one in the right femoral artery for systemic arterial pressure (SAP) measurement, and one in the right femoral vein for delivery of the hypertensor and positive control. ECG signals were acquired with ECG contacts placed in a Lead-1 configuration on the anaesthetized animal, and a pulse oxymeter was attached to the animal's hind paw to enable continuous monitoring of the general condition of the rat during the surgical. Following baseline measurements, three doses of phenylephrine (3, 10 and 20 μg/kg) were delivered by an IV bolus injection, leaving 5 minutes between doses. […] After the positive control, 10 μg/kg of phenylephrine was administered again.

[2] = in vivo
Procedure: In Part one of the study, plasma PK analysis of Dihomo-Gamma-Linolenic Acid (DGLA) and 15-Hydroxyeicosatrienoic acid (15-HETrE), in fasted subjects alone, was performed for Cohorts one to four up to 312 hours post dose on study Days 1 to 5, 8, 14, and the follow-up visit. In Part two, plasma PK analysis of DGLA was performed for Cohorts five and six up to 168 hours post dose on study Days 1, 2, 3, 5, and 8. Safety assessments were monitored throughout the study.
Analysis of plasma concentrations of DGLA (free and total) and free 15-HETrE were performed in blood samples obtained from the subjects.
Analysis of all plasma and skin blister fluid samples was performed using validated methods. Concentrations of free and total DGLA were measured in plasma and skin blister fluid by liquid chromatography with tandem mass spectrometry (LC/MS/MS); the quantitation range was 100 to 10,000 ng/mL for free DGLA and 5000 to 500,000 ng/mL for total DGLA. Plasma concentrations of free 15-HETrE were measured by LC/MS/MS with a quantitation range of 100 to 10,000 ng/mL.

[3] = Phase one study, multiple dose: free and total DGLA in skin blister fluid; format: in vivo, human
Text: The PK of DGLA in human skin following multiple doses of DS107G capsule given once daily for 28 days to healthy subjects.

[4] = Phase one study, multiple dose (28 days): plasma pharmacokinetics of free DGLA incl. steady state; format: in vivo, human
Procedure: (§1) A single-center, double-blind, randomized, placebo-controlled, two part Phase one study was performed in healthy male and female subjects aged 18 to 45 years inclusive. The primary objective of this study was to assess the safety and plasma pharmacokinetics (PK) of orally administered single doses and orally administered multiple doses of DS107G capsules (once daily for 28 days) in healthy subjects.
(§2) Multiple dose part two of the study comprised two cohorts (Cohorts five and six) of eight subjects each, who were administered multiple doses of study drug in the fasted state for 28 days. Subjects in Cohorts five and six received DS107G 2000 or 4000 mg, respectively, or matching placebo once daily for 28 days. Cohort six was started after Cohort five safety data were evaluated by the SMC. No interim analysis was planned.
(§3) Safety assessments were monitored throughout the study.
(§4) In Part two of the study (Cohorts five and six), subjects were administered study drug (500-mg DS107G capsules or matching placebo capsules) once daily in the fasted state for 28 days. Subjects in Cohort five received study drug first and, if they tolerated the 2000-mg daily dose for the first 14 days, subjects in Cohort six were started on the 4000-mg daily dose for 28 days.
(§5) PK parameter was computed after correcting the dosed DGLA concentrations with baseline DGLA concentrations.

[5] = Phase one study, multiple dose (28 days): plasma pharmacokinetics of total DGLA incl. steady state; format: in vivo, human; details: for half-life: 2000 mg, 2000 mg dose cohort, read-out: Median total DGLA elimination t½ (converted); for Peak Trough Fluctuation (PTF), mean (Table 24, total DGLA): steady-state, Day 28 (0-24 hours)
Procedure: as §1, §2, §3, §4, §5

[6] = Phase one study, food effect: single 1000 mg dose fasted vs fed, plasma pharmacokinetics of free and total DGLA; format: in vivo, human; details: for Tmax: human, plasma, oral, 1000 mg, read-out: total DGLA tmax, median
Procedure: The effect of food on the PK of an orally administered single dose of DS107G capsule in healthy subjects.
Subjects were randomly assigned in a 3:1 ratio of DG107G to placebo by block randomization. Single dose part one of the study comprised three cohorts of eight subjects each, with the addition of Cohort four based on evaluation of the safety data of Cohort three by the Safety Monitoring Committee (SMC). A single oral dose of DS107G or matching placebo was administered to fasted subjects in Cohorts one to three (500, 1000, and 2000 mg, respectively) in parallel; subjects in Cohort four were administered a dose of 4000 mg following completion of Cohort three. Subjects in Cohort two received 1000 mg or matching placebo in the fed state at 14 days after the first dose.
Food effect was evaluated in Cohort two at least 14 days after the first dose at which time a second single dose was administered. Subjects were administered a 1000-mg dose of study drug with 240 mL of water after a 10-hour fasting period and 30 minutes after starting consumption of a meal. Subjects then refrained from food intake for at least 4 hours after dosing. Food consumption was standardized for at least 12 hours after dosing using a standardized high-fat meal (800 to 1000 kcal with 500 to 600 kcal from fat and 250 kcal from carbohydrates). A typical standard test meal consisted of two eggs fried in butter, two strips of bacon, two slices of toast with butter, 120 mL of hash brown potatoes, and 240 mL of whole milk.
Subjects in Cohort two undergoing evaluation of the food effect on oral 1000 mg DGLA capsules were restricted from food consumption for at least 4 hours after dosing. Food consumption was standardized for at least 12 hours post dose using a standardized high-fat meal.

[7] = concentrations from Days 1, 8, 14 and 28
[8] = DGLA 50 mg/kg gavage 7 days, before intravenous phenylephrine

Structure (SMILES): CC(=O)Oc1ccccc1C(=O)O [Aspirin, reference compound]
- Mean Arterial Pressure, Average ([1]; Aspirin 10 mg/kg/day gavage 7 days, Baseline): 136.8 mm Hg

Structure (SMILES): CCCCC[C@H](O)/C=C/C=C\C/C=C\CCCCCCC(=O)O [Batch 15-HETrE, 15-Hydroxyeicosatrienoic acid]
- plasma free 15-HETrE concentration [2]: < 100 ng/m L

Structure (SMILES): COc1ccccc1OCCNCC(O)COc1cccc2[nH]c3ccccc3c12 (stereo not shown) [Carvedilol, reference compound]
- effect on mean systemic arterial pressure (in words) ([1]; carvedilol 0.1 mg/kg iv after phenylephrine): significant decrease
- effect on blood pressure (in words) ([1]; carvedilol 0.1 mg/kg iv, DGLA + aspirin-fed animals): significant decrease in blood pressure

Structure (SMILES): CCCCC/C=C\C/C=C\C/C=C\CCCCCCC(=O)O [DGLA, Dihomo gamma linolenic acid]
- Mean total DGLA concentrations in skin blister fluid, Day 28 vs Day 1 ([3]; 2000 mg daily): about 2.5 fold
- Mean total DGLA concentrations in skin blister fluid, Day 28 vs Day 1 ([3]; 4000 mg daily): ~3 fold
- change of mean free DGLA concentrations in skin blister fluid with a doubling in dose (in words) [3, 7]: approximately doubled
- increase of mean total DGLA concentrations in skin blister fluid with a doubling in dose [3, 7]: about 1.4 fold
- free DGLA mean accumulation ratio (AR) for AUC ([4]; 2000 mg daily): ~3.3
- free DGLA mean accumulation ratio (AR) for Cmax ([4]; 2000 mg daily): ~2.8
- free DGLA mean accumulation ratio (AR) for AUC ([4]; 4000 mg daily): ~1.6
- free DGLA mean accumulation ratio (AR) for Cmax ([4]; 4000 mg daily): ~1.4
- day by which plasma concentrations reached steady-state ([4]; 2000 and 4000 mg daily, free and total DGLA): ~14 days
- time after dosing at which mean concentrations of free DGLA peaked ([4]; Days 1 and 28, 2000 and 4000 mg daily): about 4 hours
- half-life ([5]; both sexes, human, plasma, oral, Day 1, assessed over 24 hours): 34.4 h
- half-life ([5]; both sexes, human, plasma, oral, Day 28, assessed over 24 hours): 44 h
- half-life ([5]; both sexes, human, plasma, oral, Day 28, evaluated over 0 to 168 hours): 62.6 h
- Tmax ([5]; both sexes, human, plasma, oral, with multiple doses, both dose cohorts, read-out: total DGLA Median T (tmax)): 8 to 10 h
- Peak Trough Fluctuation (PTF), mean (Table 24, total DGLA) ([5]; first of both dose cohorts (2000 mg)): 62.5%
- Peak Trough Fluctuation (PTF), mean (Table 24, total DGLA) ([5]; second of both dose cohorts (4000 mg)): 44.9%
- Diastol arterial pressure [1, 8]: 75 mm Hg
- Systol arterial pressure [1, 8]: 120 mm Hg
- Diastol arterial pressure ([1]; DGLA 500 mg/kg gavage 7 days, before intravenous phenylephrine): 80 mm Hg
- effect on arterial pressure in spontaneously hypertensive rats (in words) ([1]; DGLA alone, 50 or 500 mg/kg gavage 7 days): successfully decreases the arterial pressure
- free DGLA Cmax occurred sooner (median) under fasted than fed conditions [6]: 1 h
- Tmax ([6]; fasted): 8 h
- Tmax ([6]; fed): 15 h

Structure (SMILES): CNC[C@H](O)c1cccc(O)c1 [phenylephrine, reference compound]
- effect on mean systemic arterial pressure (in words) ([1]; phenylephrine 3, 10, 20 μg/kg iv): increased mean systemic arterial pressure with increasing doses
